Laboratory results as given in publication doi:10.1101/2024.02.23.581731v1 (biorxiv, 2024).
Changes are numbered by the printed parent chain.

Key:
h5-HT3AR [1] = target: T1, h5-HT3AR (Homo sapiens, UniProt P46098); assay: FLIPR Blue membrane potential assay, activation; format: cell-based; conditions: relative to 1 µM VTX
T1 sequence (P46098 24-478): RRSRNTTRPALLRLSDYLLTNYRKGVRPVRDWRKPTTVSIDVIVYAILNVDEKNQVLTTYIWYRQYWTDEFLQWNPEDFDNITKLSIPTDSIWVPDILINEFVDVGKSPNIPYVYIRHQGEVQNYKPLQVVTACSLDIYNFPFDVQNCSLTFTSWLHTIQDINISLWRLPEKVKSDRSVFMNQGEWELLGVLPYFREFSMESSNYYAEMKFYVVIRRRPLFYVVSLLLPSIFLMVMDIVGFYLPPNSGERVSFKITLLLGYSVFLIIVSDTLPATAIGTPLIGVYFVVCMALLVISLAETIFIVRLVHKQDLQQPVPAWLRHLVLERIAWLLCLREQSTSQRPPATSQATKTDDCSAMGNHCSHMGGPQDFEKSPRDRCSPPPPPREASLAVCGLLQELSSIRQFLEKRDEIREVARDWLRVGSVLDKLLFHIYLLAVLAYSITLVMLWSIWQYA

h5-HT3AR [2] = target: T1, h5-HT3AR; assay: [3H]-GR65630 displacement, HEK-293 membranes; format: binding
h5-HT3AR [3] = target: T1, h5-HT3AR; assay: biochemical
h5-HT3AR [4] = target: T2, h5-HT3AR (Homo sapiens, UniProt P46098, V202I); assay: biochemical
T2 sequence (P46098 24-478 V202I): T1 sequence (P46098 24-478) with V179I

gp5-HT3AR = target: T3, gp5-HT3AR (Cavia porcellus, UniProt O70212); assay: FLIPR Blue membrane potential assay, inhibition of 5-HT response; format: cell-based
T3 sequence (O70212 20-490): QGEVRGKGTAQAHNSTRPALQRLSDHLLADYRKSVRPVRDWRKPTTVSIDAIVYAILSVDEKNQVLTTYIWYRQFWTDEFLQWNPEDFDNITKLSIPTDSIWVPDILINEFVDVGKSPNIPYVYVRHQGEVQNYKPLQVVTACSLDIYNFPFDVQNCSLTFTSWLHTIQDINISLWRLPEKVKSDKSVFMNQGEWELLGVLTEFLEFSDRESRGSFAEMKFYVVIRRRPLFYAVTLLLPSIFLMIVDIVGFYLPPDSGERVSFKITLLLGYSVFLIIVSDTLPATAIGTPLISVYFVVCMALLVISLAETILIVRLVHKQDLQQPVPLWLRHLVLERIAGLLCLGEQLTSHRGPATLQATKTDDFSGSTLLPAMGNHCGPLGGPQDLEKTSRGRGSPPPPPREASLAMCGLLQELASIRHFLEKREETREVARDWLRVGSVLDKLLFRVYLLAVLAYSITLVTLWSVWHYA

| SMILES | Activity (%) at 1 μM (h5-HT3AR [1]) [%] | IC50 (gp5-HT3AR) [nM] | also measured |
| --- | --- | --- | --- |
| Cc1ccc(Sc2ccccc2N2CCNCC2)cc1 [4j] | 95 ± 12 | – | – |
| COc1ccc(Sc2ccccc2N2CCNCC2)c(Cl)c1 [5n] | 111 ± 14 | – | – |
| Cc1ccc(Sc2ccc(C)cc2N2CCNCC2)c(C)c1 [6b] | – | – | Ki (h5-HT3AR [2]): 880 nM |
| Cc1[nH]cnc1CCC(=O)c1cn(C)c2ccccc12 [[3H]-GR65630] | – | – | Kd (h5-HT3AR [3]): 0.82 ± 0.06 nM; Kd (h5-HT3AR [4]): 0.62 ± 0.05 nM |
| CN1C2CCCC1CC(NC(=O)c1nn(C)c3ccccc13)C2 (stereo not shown) [granisetron] | – | 1260 | – |
| Cc1nccn1CC1CCc2c(c3ccccc3n2C)C1=O (stereo not shown) [ondansetron] | – | 9810 | – |
